Data published in paper PMC12152872, “Molecular glue binding behavior of phosphoantigens to alpaca butyrophilins” (The Journal of Biological Chemistry, 2025).

Legend:
Format in all cases: binding
[1] = molecular target: T1, VpBTN2 B30.2 and full-length VpBTN3 B30.2 domain (Vicugna pacos, UniProt A0A345DF50+A0A6J0B3M7); test: ITC, VpBTN2 B30.[…] titrated into preformed full-length VpBTN3 B30.2-DMASPP complex (second titration); conditions: 25 °C, 25 mM Hepes pH 7.5, 150 mM NaCl; molecular glue; protein-protein KD in presence of DMASPP
T1 construct: gene Btn3; E. coli

[2] = molecular target: T2, VpBTN2 B30.2 and VpBTN3 B30.2 ΔC domains (Vicugna pacos, UniProt A0A345DF50+A0A6J0B3M7); test: ITC, VpBTN2 B30.[…] titrated into preformed VpBTN3 B30.[…] ΔC-DMASPP complex (second titration); conditions: 25 °C, 25 mM Hepes pH 7.5, 150 mM NaCl; molecular glue; protein-protein KD in presence of DMASPP
T2 construct: gene Btn3; mixture of VpBTN2 B30.2 (residues 311-535) and VpBTN3 B30.2 ΔC (residues 323-513), mixed 2:1; E. coli BL21(DE3), His tags removed by TEV; VpBTN2 site R475, T508, V509

[3] = molecular target: T3, BTN3A1 and BTN2A1 B30.2 domains (Homo sapiens, UniProt O00481+Q7KYR7); test: ITC, second titration (BTN2A1 B30.[…] into BTN3A1 B30.2-DMASPP complex); conditions: 25 °C, 25 mM Hepes pH 7.5, 150 mM NaCl; molecular glue; protein-protein KD in presence of DMASPP
T3 construct: BTN2A1 B30.2 in pET28a, Ni-NTA and DEAE; BTN3A1 B30.2 prepared as VpBTN3 B30.2; printed PDB ids are of BTN3A1 B30.2 only

[4] = molecular target: T3, BTN3A1 and BTN2A1 B30.2 domains; test: ITC, DMASPP titrated into mixture of BTN2A1 and BTN3A1 B30.[…] (first titration)
VpBTN3 B30.2 ΔC = molecular target: T4, VpBTN3 B30.2 ΔC (Vicugna pacos, UniProt A0A345DF50); test: ITC; crystal structure
T4 construct: gene Btn3; intracellular B30.2 domain, residues 323-513, C-terminal loop truncated; pET32a, E. coli BL21(DE3); N-terminal His tag removed by TEV; pocket H381, H408, W421, K423, R442, R448, R499

[5] = molecular target: T2, VpBTN2 B30.2 and VpBTN3 B30.2 ΔC domains; test: ITC, DMASPP titrated into mixture of VpBTN2 and VpBTN3 B30.[…] ΔC (first titration)

T3 sequence (O00481 328-513): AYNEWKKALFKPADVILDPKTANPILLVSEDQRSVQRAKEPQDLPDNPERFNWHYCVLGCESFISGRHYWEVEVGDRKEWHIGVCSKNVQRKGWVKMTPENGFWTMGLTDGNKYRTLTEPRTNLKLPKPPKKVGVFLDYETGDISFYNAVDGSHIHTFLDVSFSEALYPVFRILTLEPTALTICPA
T3 sequence (Q7KYR7 310-506 limits assumed): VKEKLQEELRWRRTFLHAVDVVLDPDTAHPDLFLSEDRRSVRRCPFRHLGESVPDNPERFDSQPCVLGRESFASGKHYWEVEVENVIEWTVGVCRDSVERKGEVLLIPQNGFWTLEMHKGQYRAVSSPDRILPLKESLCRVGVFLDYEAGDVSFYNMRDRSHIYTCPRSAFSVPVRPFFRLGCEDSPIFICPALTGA
T2 sequence (A0A345DF50 323-513, stated change not applied): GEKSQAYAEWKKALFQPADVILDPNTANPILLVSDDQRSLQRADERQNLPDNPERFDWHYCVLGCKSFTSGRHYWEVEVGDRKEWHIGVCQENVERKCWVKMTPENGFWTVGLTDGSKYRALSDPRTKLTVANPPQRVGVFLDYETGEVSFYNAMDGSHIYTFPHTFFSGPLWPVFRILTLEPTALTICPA
T2 sequence (A0A6J0B3M7 311-535, stated change not applied): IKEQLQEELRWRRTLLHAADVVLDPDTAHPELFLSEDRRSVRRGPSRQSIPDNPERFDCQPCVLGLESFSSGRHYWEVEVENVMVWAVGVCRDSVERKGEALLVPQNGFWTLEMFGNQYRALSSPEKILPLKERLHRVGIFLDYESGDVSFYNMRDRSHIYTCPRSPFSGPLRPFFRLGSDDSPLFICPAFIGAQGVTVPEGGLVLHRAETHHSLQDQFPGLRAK
T1 sequence (A0A345DF50 323-557 limits assumed): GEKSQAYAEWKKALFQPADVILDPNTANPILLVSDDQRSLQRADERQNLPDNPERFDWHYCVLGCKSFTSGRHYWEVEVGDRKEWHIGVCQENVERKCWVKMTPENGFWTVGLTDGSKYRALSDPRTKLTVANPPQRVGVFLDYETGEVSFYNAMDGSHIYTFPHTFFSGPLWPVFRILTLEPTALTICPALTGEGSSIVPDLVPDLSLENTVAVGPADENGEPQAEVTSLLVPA
T1 sequence (A0A6J0B3M7 311-535): as the sequence (A0A6J0B3M7 311-535, stated change not applied) above
T4 sequence (A0A345DF50 323-513, stated change not applied): as the sequence (A0A345DF50 323-513, stated change not applied) above

KD [1]: 15.2 µM
KD [2]: 22.8 µM
KD [3]: 18.8 µM
Kd [4]: 8.19 µM
Kd (VpBTN3 B30.2 ΔC): 44.7 µM
Kd [5]: 4.34 µM
SMILES: CC(C)=CCSP(=O)(O)OP(=O)(O)O [DMASPP]
